Assay results from ChEMBL document CHEMBL5291721, “A preclinical secondary pharmacology resource illuminates target-adverse drug reaction associations of marketed drugs” (Nat Commun, 2023).

Assays:
Mu-type opioid receptor = Mu-type opioid receptor (Homo sapiens, UniProt P35372); test: biochemical; format: functional
Estrogen receptor = target: T1, Estrogen receptor (Homo sapiens, UniProt P03372)
T1 sequence (P03372 whole entry): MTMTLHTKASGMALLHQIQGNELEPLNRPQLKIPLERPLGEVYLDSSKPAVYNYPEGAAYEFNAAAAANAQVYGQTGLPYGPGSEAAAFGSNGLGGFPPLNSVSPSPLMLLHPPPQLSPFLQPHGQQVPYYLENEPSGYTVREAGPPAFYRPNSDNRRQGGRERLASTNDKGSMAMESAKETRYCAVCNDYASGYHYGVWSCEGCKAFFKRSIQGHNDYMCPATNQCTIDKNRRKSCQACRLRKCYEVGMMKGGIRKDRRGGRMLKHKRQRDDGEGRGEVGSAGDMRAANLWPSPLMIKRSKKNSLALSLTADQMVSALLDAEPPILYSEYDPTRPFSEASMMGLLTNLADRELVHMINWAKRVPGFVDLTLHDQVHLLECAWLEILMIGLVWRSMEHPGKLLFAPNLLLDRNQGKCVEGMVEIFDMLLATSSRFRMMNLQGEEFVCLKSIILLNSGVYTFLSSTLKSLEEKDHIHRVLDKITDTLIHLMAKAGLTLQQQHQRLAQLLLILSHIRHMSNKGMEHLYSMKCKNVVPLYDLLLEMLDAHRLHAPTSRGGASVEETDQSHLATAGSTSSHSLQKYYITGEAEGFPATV

[1] = target: T2, Corticotropin-releasing factor receptor 1 (Homo sapiens, UniProt P34998)
T2 sequence (P34998 whole entry): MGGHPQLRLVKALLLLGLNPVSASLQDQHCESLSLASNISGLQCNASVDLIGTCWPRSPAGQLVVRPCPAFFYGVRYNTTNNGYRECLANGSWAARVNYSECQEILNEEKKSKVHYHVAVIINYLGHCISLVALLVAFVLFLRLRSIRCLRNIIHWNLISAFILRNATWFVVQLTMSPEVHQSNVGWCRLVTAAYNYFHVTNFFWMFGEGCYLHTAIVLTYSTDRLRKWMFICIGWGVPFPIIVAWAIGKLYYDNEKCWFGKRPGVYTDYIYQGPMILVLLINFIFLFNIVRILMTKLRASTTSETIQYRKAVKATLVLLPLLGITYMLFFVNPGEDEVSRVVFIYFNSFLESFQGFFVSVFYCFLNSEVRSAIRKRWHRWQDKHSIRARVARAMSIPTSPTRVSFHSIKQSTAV

Estrogen receptor beta = Estrogen receptor beta (Homo sapiens, UniProt Q92731)
D(1A) dopamine receptor = D(1A) dopamine receptor (Homo sapiens, UniProt P21728)
[2] = target: T3, Alpha-2A adrenergic receptor (Homo sapiens, UniProt P08913)
T3 sequence (P08913 whole entry): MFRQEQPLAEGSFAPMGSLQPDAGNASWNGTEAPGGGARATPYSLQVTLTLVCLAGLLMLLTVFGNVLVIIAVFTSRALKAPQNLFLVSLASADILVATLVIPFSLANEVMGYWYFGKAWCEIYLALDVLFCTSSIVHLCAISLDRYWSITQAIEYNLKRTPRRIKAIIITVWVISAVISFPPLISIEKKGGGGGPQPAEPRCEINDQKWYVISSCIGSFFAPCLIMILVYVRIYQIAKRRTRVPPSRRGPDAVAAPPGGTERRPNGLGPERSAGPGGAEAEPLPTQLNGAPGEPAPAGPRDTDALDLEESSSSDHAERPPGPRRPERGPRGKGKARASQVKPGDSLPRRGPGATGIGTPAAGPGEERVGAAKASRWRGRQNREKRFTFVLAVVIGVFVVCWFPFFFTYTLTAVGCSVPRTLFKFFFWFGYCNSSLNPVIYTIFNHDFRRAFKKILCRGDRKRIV

[3] = target: T4, Gamma-aminobutyric acid receptor subunit alpha-1/alpha-2/beta-2/gamma-2 (Homo sapiens, UniProt P14867+P18507+P47869+P47870); format: functional, cell-based
[4] = target: T4, Gamma-aminobutyric acid receptor subunit alpha-1/alpha-2/beta-2/gamma-2; format: functional, cell-based; remark: listed apart in the source
[5] = target: T4, Gamma-aminobutyric acid receptor subunit alpha-1/alpha-2/beta-2/gamma-2; format: protein-complex assay
Further: assay procedure not described here.

Chain of D(1A) dopamine receptor (P21728 whole entry): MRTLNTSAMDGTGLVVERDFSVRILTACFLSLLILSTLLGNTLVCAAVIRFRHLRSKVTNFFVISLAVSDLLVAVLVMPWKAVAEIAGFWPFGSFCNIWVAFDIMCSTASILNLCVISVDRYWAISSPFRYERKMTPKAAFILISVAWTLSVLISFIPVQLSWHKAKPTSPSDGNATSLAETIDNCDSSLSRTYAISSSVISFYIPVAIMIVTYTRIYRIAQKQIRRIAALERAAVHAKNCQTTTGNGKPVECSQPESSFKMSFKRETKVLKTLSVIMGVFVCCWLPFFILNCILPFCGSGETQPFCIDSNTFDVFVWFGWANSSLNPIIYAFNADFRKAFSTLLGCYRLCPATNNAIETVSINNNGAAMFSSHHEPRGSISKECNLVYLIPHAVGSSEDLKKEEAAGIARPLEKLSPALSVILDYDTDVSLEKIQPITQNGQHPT
Chain of Mu-type opioid receptor (P35372 whole entry): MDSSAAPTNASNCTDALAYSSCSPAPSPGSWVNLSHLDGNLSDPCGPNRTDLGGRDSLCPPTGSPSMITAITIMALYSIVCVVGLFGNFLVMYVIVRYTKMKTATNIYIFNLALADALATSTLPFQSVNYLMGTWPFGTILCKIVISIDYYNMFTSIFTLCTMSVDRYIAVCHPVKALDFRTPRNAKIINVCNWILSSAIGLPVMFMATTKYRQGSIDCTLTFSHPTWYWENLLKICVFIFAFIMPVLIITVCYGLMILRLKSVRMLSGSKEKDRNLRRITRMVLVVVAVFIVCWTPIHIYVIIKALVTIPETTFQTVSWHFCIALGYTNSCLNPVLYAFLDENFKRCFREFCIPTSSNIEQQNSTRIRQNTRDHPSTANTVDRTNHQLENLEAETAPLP
Chain of Estrogen receptor beta (Q92731 whole entry): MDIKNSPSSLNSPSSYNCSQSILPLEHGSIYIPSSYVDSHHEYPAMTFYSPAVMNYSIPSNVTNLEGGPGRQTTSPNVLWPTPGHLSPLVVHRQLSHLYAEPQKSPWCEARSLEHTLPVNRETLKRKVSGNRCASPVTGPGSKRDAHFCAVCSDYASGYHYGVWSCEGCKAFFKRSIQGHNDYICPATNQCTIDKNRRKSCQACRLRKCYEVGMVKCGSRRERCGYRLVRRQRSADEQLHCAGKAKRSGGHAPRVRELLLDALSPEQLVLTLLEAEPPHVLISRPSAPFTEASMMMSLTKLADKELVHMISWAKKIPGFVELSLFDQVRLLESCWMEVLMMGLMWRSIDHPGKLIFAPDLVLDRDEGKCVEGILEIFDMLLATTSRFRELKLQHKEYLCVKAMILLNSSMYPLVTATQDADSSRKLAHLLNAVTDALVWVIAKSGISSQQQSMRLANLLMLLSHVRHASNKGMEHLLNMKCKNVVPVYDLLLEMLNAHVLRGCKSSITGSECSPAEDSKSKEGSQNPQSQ
T4 sequence (P14867 whole entry): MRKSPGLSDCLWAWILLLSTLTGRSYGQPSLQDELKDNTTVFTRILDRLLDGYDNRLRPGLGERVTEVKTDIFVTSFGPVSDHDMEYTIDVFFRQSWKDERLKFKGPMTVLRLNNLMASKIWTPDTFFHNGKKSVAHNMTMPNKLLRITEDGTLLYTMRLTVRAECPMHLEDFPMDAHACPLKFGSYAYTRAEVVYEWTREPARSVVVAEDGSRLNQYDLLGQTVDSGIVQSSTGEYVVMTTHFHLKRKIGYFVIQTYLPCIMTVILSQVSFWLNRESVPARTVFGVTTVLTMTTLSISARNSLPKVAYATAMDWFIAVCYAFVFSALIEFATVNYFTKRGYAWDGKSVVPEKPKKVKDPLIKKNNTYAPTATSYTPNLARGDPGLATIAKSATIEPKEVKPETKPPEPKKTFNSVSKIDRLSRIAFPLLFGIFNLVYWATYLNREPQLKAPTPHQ
T4 sequence (P47870 whole entry): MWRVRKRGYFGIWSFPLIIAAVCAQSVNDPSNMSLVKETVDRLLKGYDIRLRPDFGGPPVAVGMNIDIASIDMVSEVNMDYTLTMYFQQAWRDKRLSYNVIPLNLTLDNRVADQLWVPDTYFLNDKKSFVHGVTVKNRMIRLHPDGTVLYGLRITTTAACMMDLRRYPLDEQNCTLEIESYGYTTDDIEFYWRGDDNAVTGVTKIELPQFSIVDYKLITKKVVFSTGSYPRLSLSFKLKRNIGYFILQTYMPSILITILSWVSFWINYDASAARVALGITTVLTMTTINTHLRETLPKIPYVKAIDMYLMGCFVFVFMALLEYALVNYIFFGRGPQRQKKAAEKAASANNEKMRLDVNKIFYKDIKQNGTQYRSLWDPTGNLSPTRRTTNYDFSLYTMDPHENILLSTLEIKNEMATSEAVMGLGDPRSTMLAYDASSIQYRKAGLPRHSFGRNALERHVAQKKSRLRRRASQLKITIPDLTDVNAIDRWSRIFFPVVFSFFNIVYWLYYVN
T4 sequence (P18507 whole entry): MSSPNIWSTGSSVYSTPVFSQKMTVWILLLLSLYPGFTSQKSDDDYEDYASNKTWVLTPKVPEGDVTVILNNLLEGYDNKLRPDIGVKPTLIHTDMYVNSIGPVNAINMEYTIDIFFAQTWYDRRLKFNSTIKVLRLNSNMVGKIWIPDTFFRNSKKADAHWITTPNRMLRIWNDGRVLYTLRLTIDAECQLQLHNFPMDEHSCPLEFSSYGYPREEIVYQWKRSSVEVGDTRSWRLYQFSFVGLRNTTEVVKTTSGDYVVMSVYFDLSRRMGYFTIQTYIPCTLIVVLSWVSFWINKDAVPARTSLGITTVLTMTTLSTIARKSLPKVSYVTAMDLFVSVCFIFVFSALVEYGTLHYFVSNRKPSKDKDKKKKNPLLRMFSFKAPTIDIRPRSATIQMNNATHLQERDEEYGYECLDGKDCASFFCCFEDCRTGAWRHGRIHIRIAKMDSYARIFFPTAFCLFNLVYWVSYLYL
T4 sequence (P47869 whole entry): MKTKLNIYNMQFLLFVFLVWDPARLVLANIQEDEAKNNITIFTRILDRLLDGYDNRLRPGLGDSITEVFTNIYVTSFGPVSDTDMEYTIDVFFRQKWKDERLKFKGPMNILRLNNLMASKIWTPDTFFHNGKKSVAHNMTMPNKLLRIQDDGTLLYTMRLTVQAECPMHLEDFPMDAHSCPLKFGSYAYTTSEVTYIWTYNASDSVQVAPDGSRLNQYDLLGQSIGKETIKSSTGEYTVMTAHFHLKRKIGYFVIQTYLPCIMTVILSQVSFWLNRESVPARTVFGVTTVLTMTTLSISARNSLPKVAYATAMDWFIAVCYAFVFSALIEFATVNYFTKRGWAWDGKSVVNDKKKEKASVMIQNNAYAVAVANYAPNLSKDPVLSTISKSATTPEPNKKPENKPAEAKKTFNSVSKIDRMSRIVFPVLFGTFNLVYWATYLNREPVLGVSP

Row | SMILES | AC50 (Mu-type opioid receptor) | AC50 (Estrogen receptor) | AC50 [5] | other results
1 | CCCCN1C[C@H](O)[C@@H](O)[C@H](O)[C@H]1CO | > 30 µM | > 30 µM | – | –
2 | CCOC(=O)[C@H](CCc1ccccc1)N[C@@H](C)C(=O)N1[C@H](C(=O)O)C[C@@H]2CCC[C@@H]21 | – | > 30 µM | – | AC50 [1]: > 30 µM; AC50 (Estrogen receptor beta): > 30 µM; AC50 (D(1A) dopamine receptor): > 10 µM; AC50 [2]: > 10 µM
3 | Nc1nc(NC2CC2)c2ncn([C@H]3C=C[C@@H](CO)C3)c2n1 [ABACAVIR] | > 30 µM | – | – | AC50 [3]: > 30 µM; AC50 [4]: > 30 µM
4 | CC(=O)NCCCS(=O)(=O)O [ACAMPROSATE] | > 30 µM | – | – | –
5 | CC(=O)Nc1ccc(O)cc1 [ACETAMINOPHEN] | – | – | > 30 µM | AC50 [3]: > 30 µM; AC50 [4]: > 30 µM
6 | COc1cc2nc(N(C)CCCNC(=O)C3CCCO3)nc(N)c2cc1OC (stereo unspecified) [ALFUZOSIN] | > 30 µM | > 30 µM | – | –
7 | C=CCc1ccccc1OCC(O)CNC(C)C (stereo unspecified) [ALPRENOLOL] | > 30 µM | – | > 0.3 µM | –
8 | COC(c1ccccc1)(c1ccccc1)[C@H](Oc1nc(C)cc(C)n1)C(=O)O [AMBRISENTAN] | – | – | > 30 µM | –
9 | CC[C@H]1OC(=O)[C@H](C)[C@@H](O[C@H]2C[C@@](C)(OC)[C@@H](O)[C@H](C)O2)[C@H](C)[C@@H](O[C@@H]2O[C@H](C)C[C@H](N(C)C)[C@H]2O)[C@](C)(O)C[C@@H](C)CN(C)[C@H](C)[C@@H](O)[C@]1(C)O [AZITHROMYCIN] | – | > 30 µM | – | AC50 [1]: > 30 µM; AC50 (Estrogen receptor beta): > 30 µM; AC50 (D(1A) dopamine receptor): > 10 µM; AC50 [2]: > 10 µM
10 | Cc1ccc(-c2cc(C(F)(F)F)nn2-c2ccc(S(N)(=O)=O)cc2)cc1 [CELECOXIB] | – | > 30 µM | – | AC50 [1]: > 30 µM; AC50 (D(1A) dopamine receptor): > 10 µM; AC50 [2]: > 10 µM
11 | CC1=C(C(=O)O)N2C(=O)[C@@H](NC(=O)[C@H](N)c3ccccc3)[C@H]2SC1 [CEPHALEXIN ANHYDROUS] | – | > 30 µM | – | AC50 [1]: > 30 µM; AC50 (Estrogen receptor beta): > 30 µM; AC50 [2]: > 10 µM
12 | CN1C(=O)CCS(=O)(=O)C1c1ccc(Cl)cc1 (stereo unspecified) [CHLORMEZANONE] | > 30 µM | – | – | –
13 | Oc1c(Cl)cc(Cl)c2cccnc12 [CHLOROXINE] | – | – | > 30 µM | –
14 | CN(C)CCC(c1ccc(Cl)cc1)c1ccccn1 (stereo unspecified) [CHLORPHENIRAMINE] | – | – | – | AC50 [1]: > 30 µM; AC50 (D(1A) dopamine receptor): > 10 µM; AC50 [2]: > 10 µM
15 | CN(C)/N=N/c1[nH]cnc1C(N)=O [DACARBAZINE] | > 30 µM | > 10 µM | – | –
16 | CN(C)CCN1C(=O)c2ccccc2N(C)c2ccccc21 [DIBENZEPIN] | – | – | > 30 µM | –
17 | O=C(Cc1ccc(-c2ccccc2)cc1)Nc1ccccn1 [DIFENPIRAMIDE] | > 30 µM | – | – | AC50 [3]: > 30 µM; AC50 [4]: > 30 µM
18 | N[C@H](C(=O)O)[C@H](O)c1ccc(O)c(O)c1 [DROXIDOPA] | – | – | > 30 µM | –
19 | C[C@]12CC[C@@H]3c4ccc(O)cc4CC[C@H]3[C@@H]1C[C@@H](O)[C@@H]2O [ESTRIOL] | – | – | > 30 µM | –
20 | O=C(O)c1cc(O)ccc1O [GENTISIC ACID] | – | – | > 30 µM | –
21 | C[N+]1(C)CCC(OC(=O)C(O)(c2ccccc2)C2CCCC2)C1 (stereo unspecified) [GLYCOPYRRONIUM BROMIDE] | – | > 30 µM | – | –
22 | C[C@]12CCC(=O)C=C1CC[C@@H]1[C@@H]2[C@@H](O)C[C@@]2(C)[C@H]1CC[C@]2(O)C(=O)CO [HYDROCORTISONE] | – | – | – | AC50 [1]: > 30 µM; AC50 (Estrogen receptor beta): > 30 µM; AC50 (D(1A) dopamine receptor): > 10 µM; AC50 [2]: > 10 µM

Row | SMILES | AC50 (Mu-type opioid receptor) | AC50 (Estrogen receptor) | AC50 [5] | other results
23 | O=P1(NCCCl)OCCCN1CCCl (stereo unspecified) [IFOSFAMIDE] | > 30 µM | – | – | –
24 | CCC(C)n1ncn(-c2ccc(N3CCN(c4ccc(OCC5COC(Cn6cncn6)(c6ccc(Cl)cc6Cl)O5)cc4)CC3)cc2)c1=O (stereo unspecified) [ITRACONAZOLE] | > 30 µM | > 30 µM | – | AC50 [1]: > 30 µM; AC50 (Estrogen receptor beta): > 30 µM; AC50 (D(1A) dopamine receptor): > 10 µM; AC50 [2]: > 10 µM
25 | CN1C(C(=O)Nc2ccccn2)=C(O)c2sc(Cl)cc2S1(=O)=O [LORNOXICAM] | – | > 30 µM | – | –
26 | OCCN1C[C@H](O)[C@@H](O)[C@H](O)[C@H]1CO [MIGLITOL] | – | – | > 30 µM | –
27 | CC(=O)N[C@@H]1[C@@H](O)[C@H](O)[C@@H](CO)O[C@H]1O [N-ACETYLGLUCOSAMINE] | – | – | > 30 µM | –
28 | O=C(CCNNC(=O)c1ccncc1)NCc1ccccc1 [NIALAMIDE] | – | – | > 30 µM | –
29 | CC1(C)NC(=O)N(c2ccc([N+](=O)[O-])c(C(F)(F)F)c2)C1=O [NILUTAMIDE] | > 30 µM | – | – | –
30 | Cc1nc([N+](=O)[O-])cn1-c1ccc([N+](=O)[O-])cc1 [NITREFAZOLE] | > 30 µM | – | – | –
31 | CC[C@H]1[C@@H](O)[C@@H]2[C@H](CC[C@]3(C)[C@@H]([C@H](C)CCC(=O)O)CC[C@@H]23)[C@@]2(C)CC[C@@H](O)C[C@@H]12 [OBETICHOLIC ACID] | > 30 µM | > 30 µM | > 30 µM | –
32 | CC[N+]1(C)[C@@H]2CC(OC(=O)[C@H](CO)c3ccccc3)C[C@H]1[C@@H]1O[C@@H]12 (stereo partly specified) [OXITROPIUM] | – | – | > 30 µM | –
33 | CC(C)(C)NC[C@H](O)COc1ccccc1C1CCCC1 [PENBUTOLOL] | – | – | > 30 µM | –
34 | CC(C)(S)[C@@H](N)C(=O)O [PENICILLAMINE] | – | – | > 30 µM | –
35 | COc1cc(NC(C)CCCN)c2ncccc2c1 (stereo unspecified) [PRIMAQUINE] | – | 6.7 µM | – | –
36 | COc1ccccc1OCC(O)CN1CCN(CC(=O)Nc2c(C)cccc2C)CC1 (stereo unspecified) [RANOLAZINE] | > 30 µM | > 30 µM | – | AC50 [2]: 13 µM
37 | CS(=O)(=O)c1ccc(C2=C(c3ccccc3)C(=O)OC2)cc1 [ROFECOXIB] | > 30 µM | – | > 30 µM | AC50 [1]: > 30 µM; AC50 (Estrogen receptor beta): > 30 µM; AC50 (D(1A) dopamine receptor): > 10 µM; AC50 [2]: > 10 µM
38 | CO[C@H]1C[C@@H]2CC[C@@H](C)[C@@](O)(O2)C(=O)C(=O)N2CCCC[C@H]2C(=O)O[C@H]([C@H](C)C[C@@H]2CC[C@@H](O)[C@H](OC)C2)CC(=O)[C@H](C)/C=C(\C)[C@@H](O)[C@@H](OC)C(=O)[C@H](C)C[C@H](C)/C=C/C=C/C=C/1C [SIROLIMUS] | – | > 30 µM | – | AC50 [1]: > 30 µM; AC50 (Estrogen receptor beta): > 30 µM
39 | Clc1ccc2nsnc2c1NC1=NCCN1 [TIZANIDINE] | > 30 µM | > 30 µM | – | AC50 [1]: > 30 µM; AC50 (Estrogen receptor beta): > 30 µM; AC50 (D(1A) dopamine receptor): > 10 µM
40 | CCOC(=O)[C@H](CCc1ccccc1)N[C@@H](C)C(=O)N1[C@H](C(=O)O)C[C@H]2CCCC[C@@H]21 [TRANDOLAPRIL] | – | – | > 30 µM | –
41 | O=C(O[C@H]1C[C@H]2CC[C@@H](C1)[N+]21CCCC1)C(O)(c1ccccc1)c1ccccc1 [TROSPIUM] | > 30 µM | – | – | –
42 | CCCCCCOc1nsnc1C1=CCCN(C)C1 [XANOMELINE] | – | – | > 30 µM | –
43 | Nc1ccn([C@H]2CC[C@@H](CO)O2)c(=O)n1 [ZALCITABINE] | – | > 10 µM | – | –
44 | Cc1cn([C@H]2C[C@H](N=[N+]=[N-])[C@@H](CO)O2)c(=O)[nH]c1=O [ZIDOVUDINE] | – | > 30 µM | – | AC50 [1]: > 30 µM; AC50 (D(1A) dopamine receptor): > 10 µM; AC50 [2]: > 10 µM
